How the values were obtained:
Klebsiella pneumoniae = experiment: Sensitivity of bacteria to antibiotics dissolved in composition, diffusion into nutrient agar; format: cell-based; parameters: Rate of increase of sensitivity of bacteria (increase of diameters of zones of suppression vs control): concentration or dose not given beside the values; settings: for Rate of increase of sensitivity of bacteria (increase of diameters of zones of suppression vs control): Clebsiella, antibiotic dissolved in composition pH=7.9, Eh=−230 mV
Method: (§1) It was used the method of preparations diffusion into nutrient agar. […] It was used sterilized water with Eh=250 mV, SCE, pH=7.9 and mineralization 350 mg/l for control.

Salmonella sp. = experiment: as above; format: cell-based; parameters: Rate of increase of sensitivity of bacteria (increase of diameters of zones of suppression vs control): concentration or dose not given beside the values; settings: for Rate of increase of sensitivity of bacteria (increase of diameters of zones of suppression vs control): Salmonella, antibiotic dissolved in composition pH=7.9, Eh=−230 mV; for change of strain sensitivity: antibiotic dissolved in composition
Method: as §1

S. aureus = experiment: as above; format: cell-based; settings: for Rate of increase of sensitivity of bacteria (increase of diameters of zones of suppression vs control): Staphylococcus, antibiotic dissolved in composition pH=7.9, Eh=−230 mV
Method: as §1

Shigella sp. = experiment: as above; format: cell-based; settings: for Rate of increase of sensitivity of bacteria (increase of diameters of zones of suppression vs control): Shigella, antibiotic dissolved in composition pH=7.9, Eh=−230 mV; for change of strain sensitivity: antibiotic dissolved in composition
Method: as §1

[1] = Stabilization of redox properties of water solution, 6 months storage at 50° C after autoclaving; format: physicochemical; settings: autoclaved
Method: Water from water supply system with initial characteristics: Eh=+260 mV, SCE, and pH 6.7, is directed to the device of “Izumrud”-type, which is manufactured in Russia. On the output characteristics of water have the values: […] After sterilization these flasks with mentioned water solutions are put into the thermostat at temperature 50° C. Flasks with water solutions corresponding to this invention and stored at the mentioned temperature, protected from light, during 6 months. After 6 months flasks are opened, and the redox potential is measured.

[2] = Content of MDA in liposome dispersions (oxidation of phospholipids); format: physicochemical; settings: Yolk lecithin liposomes; 1 hour
Method: In the experiment liposomes are made by mixing and ultrasound treatment of phospholipids of yolk and the water solution, corresponding to this invention, with specified redox properties, containing glycine. Liposomes, prepared by this method, are the milk-white suspension. […] Electrochemically activated water: anomalous properties, mechanism of biological effect. Moscow 1997, […]. 152). There was also determined the rate of oxidation of phospholipids according to content of dialdehyde malonate (DMA).

[3] = antibiotic dissolved in composition

| Molecule | Rate of increase of sensitivity of bacteria (increase of diameters of zones of suppression vs control) (Klebsiella pneumoniae) [%] | Rate of increase of sensitivity of bacteria (increase of diameters of zones of suppression vs control) (Salmonella sp.) [%] | Rate of increase of sensitivity of bacteria (increase of diameters of zones of suppression vs control) (S. aureus) [%] | Rate of increase of sensitivity of bacteria (increase of diameters of zones of suppression vs control) (Shigella sp.) [%] | pH after 6 months ([1]; 0.005% of weight) | pH after 6 months ([1]; 0.5% of weight) | pH after 6 months ([1]; 10% of weight) | also measured |
| --- | --- | --- | --- | --- | --- | --- | --- | --- |
| CC1(C)S[C@@H]2[C@H](NC(=O)[C@H](N)c3ccccc3)C(=O)N2[C@H]1C(=O)O [Ampicillin] | 7 | 26 | 22 | 44 |  |  |  | change of strain sensitivity (Salmonella sp.): from medium sensitive to sensitive; change of sensitivity (S. aureus; [3]): increased; change of strain sensitivity (Shigella sp.): from resistant to sensitive |
| NC(=O)CC[C@H](N)C(=O)O [Glutamine] |  |  |  |  | 5.8 | 7.2 | 7.2 |  |
| Gelatin |  |  |  |  | 6.8 | 7.3 | 7.6 |  |
| CCn1cc(C(=O)O)c(=O)c2ccc(C)nc21 [Nalidixic acid] | 11 | 42 | 3 | 33 |  |  |  | change of strain sensitivity (Salmonella sp.): from resistant to sensitive |
| N[C@@H](Cc1ccc(O)cc1)C(=O)O [Tyrosine] |  |  |  |  | 7.2 | 7.4 | 7.2 | Eh after 6 months ([1]; 0.005% of weight): −5 mV; Eh after 6 months ([1]; 0.5% of weight): −80 mV; Eh after 6 months ([1]; 10% of weight): −30 mV |
| C[C@@H](O)[C@H](N)C(=O)O [Threonine] |  |  |  |  | 7.1 | 7.5 | 7.4 |  |
| CC(=O)Oc1c(C)c(C)c2c(c1C)CCC(C)(CCC[C@H](C)CCC[C@H](C)CCCC(C)C)O2 (some centres unmarked) [Water + tocopherol acetate (2%), tocopherol acetate] |  |  |  |  |  |  |  | Content of MDA [2]: 3.1 nmol/mL |
| O=C(N[C@H](CO)[C@H](O)c1ccc([N+](=O)[O-])cc1)C(Cl)Cl [Chloramphenicol] | 5 | 6 | 3 | 17 |  |  |  |  |
| Cc1cc(C(C)(C)C)c(O)c(C(C)(C)C)c1 [Water + agidol (1.0%), agidol] |  |  |  |  |  |  |  | Content of MDA [2]: 2.0 nmol/mL |
| NCC(=O)O [Glycine] |  |  |  |  | 7.2 | 7.9 | 7.7 |  |
| NCC[C@H](O)C(=O)N[C@@H]1C[C@H](N)[C@@H](O[C@H]2O[C@H](CN)[C@@H](O)[C@H](O)[C@H]2O)[C@H](O)[C@H]1O[C@H]1O[C@H](CO)[C@@H](O)[C@H](N)[C@H]1O [Amicacin] | 34 | 18 | 4 | 38 |  |  |  | change of sensitivity (Klebsiella pneumoniae; [3]): increased; change of strain sensitivity (Shigella sp.): from medium sensitive to sensitive |
| NCC(N)=O [Glycine amide] |  |  |  |  | 6.5 | 7.4 | 7.0 |  |
| Cc1cc(C(C)(C)C)c(O)c(C(C)(C)C)c1 [Water + butyl-hydroxytoluene (0.1%), butyl-hydroxytoluene] |  |  |  |  |  |  |  | Content of MDA [2]: 2.7 nmol/mL |
| NC[C@H]1O[C@H](O[C@H]2[C@H](O)[C@@H](O[C@H]3O[C@H](CO)[C@@H](O)[C@H](N)[C@H]3O)[C@H](N)C[C@@H]2N)[C@H](O)[C@@H](O)[C@@H]1O [Kanamycin] | 12 | 18 | 8 | 35 |  |  |  |  |
| N[C@@H](CS)C(=O)O [Cysteine] |  |  |  |  | 7.3 | 7.8 | 6.9 |  |
| N[C@@H](CO)C(=O)O [Serine] |  |  |  |  | 7.1 | 7.8 | 7.6 |  |
| Gentamycin | 6 | 47 | 11 | 40 |  |  |  | change of strain sensitivity (Salmonella sp.): from resistant to sensitive; change of strain sensitivity (Shigella sp.): from resistant to sensitive |
| NC(=O)C[C@H](N)C(=O)O [Asparagine] |  |  |  |  | 5.9 | 6.9 | 7.0 |  |

— patent US20050143321A1, “Composition with stabilized redox properties and method of stabilization of redox properties” (priority 2002, published 2005)
